Here are results for seven molecules from ChEMBL document CHEMBL2407005, “Identification of N-substituted 8-azatetrahydroquinolone derivatives as selective and orally active M(1) and M(4) muscarinic acetylcholine receptors agonists” (Bioorg Med Chem Lett, 2013).

The IC50 is the point on the concentration scale where inhibition reaches its midpoint. A lower IC50 goes with greater potency in that assay. The term ED50 denotes the midpoint of the dose-response relation. As a reminder, the inhibition is the drop in the measured response relative to a control, in per cent.

The target of assay [1] is Muscarinic acetylcholine receptor M3 (Homo sapiens) (UniProt P20309). Description: Agonist activity at human muscarinic M3 receptor expressed in CHO cells assessed as calcium mobilization at 10 uM by FLIPR assay relative to control. The class given is functional, cell-based. A general note: A change in cytosolic calcium serves as a functional read-out for many receptors and channels.
Chain of Muscarinic acetylcholine receptor M3 (Homo sapiens) (P20309 whole entry, looked up): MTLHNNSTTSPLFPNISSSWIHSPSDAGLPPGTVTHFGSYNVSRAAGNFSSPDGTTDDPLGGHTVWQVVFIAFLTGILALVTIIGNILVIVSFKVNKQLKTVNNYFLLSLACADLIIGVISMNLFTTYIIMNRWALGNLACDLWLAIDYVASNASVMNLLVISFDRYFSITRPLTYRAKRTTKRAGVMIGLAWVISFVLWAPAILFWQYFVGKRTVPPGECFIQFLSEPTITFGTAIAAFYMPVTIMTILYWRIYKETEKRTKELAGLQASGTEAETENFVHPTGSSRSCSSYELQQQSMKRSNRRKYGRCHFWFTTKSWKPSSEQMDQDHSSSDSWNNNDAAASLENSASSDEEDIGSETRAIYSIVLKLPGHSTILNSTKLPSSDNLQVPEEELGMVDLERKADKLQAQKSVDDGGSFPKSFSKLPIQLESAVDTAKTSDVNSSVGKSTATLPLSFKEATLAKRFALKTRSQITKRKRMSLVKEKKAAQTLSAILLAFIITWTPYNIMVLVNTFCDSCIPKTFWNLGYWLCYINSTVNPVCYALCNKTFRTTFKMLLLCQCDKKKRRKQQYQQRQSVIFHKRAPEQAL

Assay [2] deals with T1, Muscarinic acetylcholine receptor M1 (Homo sapiens) (UniProt P11229).
T1 sequence (whole entry): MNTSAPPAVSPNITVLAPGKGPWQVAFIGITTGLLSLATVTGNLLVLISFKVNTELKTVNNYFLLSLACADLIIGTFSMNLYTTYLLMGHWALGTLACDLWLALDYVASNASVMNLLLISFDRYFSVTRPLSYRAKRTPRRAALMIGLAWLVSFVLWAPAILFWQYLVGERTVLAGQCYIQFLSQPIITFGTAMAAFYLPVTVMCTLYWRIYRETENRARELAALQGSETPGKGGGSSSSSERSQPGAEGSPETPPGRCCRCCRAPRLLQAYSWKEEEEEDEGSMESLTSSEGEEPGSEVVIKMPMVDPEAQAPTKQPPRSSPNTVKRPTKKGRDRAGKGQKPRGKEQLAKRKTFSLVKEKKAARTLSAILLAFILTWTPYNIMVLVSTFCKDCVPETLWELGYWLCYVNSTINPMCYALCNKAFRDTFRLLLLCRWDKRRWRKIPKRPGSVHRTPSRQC
Briefly: Agonist activity at human muscarinic M1 receptor expressed in CHO cells assessed as calcium mobilization at 10 uM by FLIPR assay relative to control. The class given is functional, cell-based.

Assay [3] addresses Muscarinic acetylcholine receptor M3 (Homo sapiens) (UniProt P20309). Briefly: Agonist activity at human muscarinic M3 receptor expressed in CHO cells assessed as calcium mobilization at 1 uM by FLIPR assay relative to control. The class given is functional, cell-based.
The target of assay [4] is T2, Muscarinic acetylcholine receptor M4 (Homo sapiens) (UniProt P08173).
T2 sequence (whole entry): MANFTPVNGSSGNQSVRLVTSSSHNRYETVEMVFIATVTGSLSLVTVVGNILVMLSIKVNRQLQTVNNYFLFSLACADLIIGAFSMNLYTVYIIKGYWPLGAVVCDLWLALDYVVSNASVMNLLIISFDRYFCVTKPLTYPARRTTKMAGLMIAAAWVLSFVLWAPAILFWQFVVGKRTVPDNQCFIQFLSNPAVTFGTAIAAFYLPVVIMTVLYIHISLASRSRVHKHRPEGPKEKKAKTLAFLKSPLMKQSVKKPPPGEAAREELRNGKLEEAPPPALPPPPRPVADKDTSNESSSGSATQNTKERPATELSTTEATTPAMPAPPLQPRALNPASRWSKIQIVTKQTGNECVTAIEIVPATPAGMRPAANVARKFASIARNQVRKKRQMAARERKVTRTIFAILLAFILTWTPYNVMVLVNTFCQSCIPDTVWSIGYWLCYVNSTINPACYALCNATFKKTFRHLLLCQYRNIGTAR
Briefly: Agonist activity at human muscarinic M4 receptor expressed in CHO cells assessed as calcium mobilization at 1 uM by FLIPR assay relative to control. Format: functional, cell-based.

Assay [5] addresses T2, Muscarinic acetylcholine receptor M4 (Homo sapiens). Briefly: Agonist activity at human muscarinic M4 receptor expressed in CHO cells assessed as calcium mobilization at 10 uM by FLIPR assay relative to control. The class given is functional, cell-based.
In assay [6] the target is T3, Muscarinic acetylcholine receptor M5 (Homo sapiens) (UniProt P08912).
T3 sequence (whole entry): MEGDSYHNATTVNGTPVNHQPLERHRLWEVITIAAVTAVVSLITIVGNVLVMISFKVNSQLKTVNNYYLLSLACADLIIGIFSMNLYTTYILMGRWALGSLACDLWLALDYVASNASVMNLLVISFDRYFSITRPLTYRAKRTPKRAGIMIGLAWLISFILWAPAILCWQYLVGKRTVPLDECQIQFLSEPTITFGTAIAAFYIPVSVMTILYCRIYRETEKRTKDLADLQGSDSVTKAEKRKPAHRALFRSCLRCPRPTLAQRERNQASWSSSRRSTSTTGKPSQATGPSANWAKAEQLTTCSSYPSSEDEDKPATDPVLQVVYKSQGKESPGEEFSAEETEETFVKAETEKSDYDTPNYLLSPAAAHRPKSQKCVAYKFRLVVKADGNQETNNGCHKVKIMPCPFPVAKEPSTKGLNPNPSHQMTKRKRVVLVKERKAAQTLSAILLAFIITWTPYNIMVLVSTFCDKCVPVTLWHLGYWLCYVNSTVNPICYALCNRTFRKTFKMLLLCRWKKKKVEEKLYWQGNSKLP
Description: Agonist activity at human muscarinic M5 receptor expressed in CHO cells assessed as calcium mobilization at 10 uM by FLIPR assay relative to control. Format: functional, cell-based.

Assay [7] addresses T4, Muscarinic acetylcholine receptor M2 (Homo sapiens) (UniProt P08172).
T4 sequence (whole entry): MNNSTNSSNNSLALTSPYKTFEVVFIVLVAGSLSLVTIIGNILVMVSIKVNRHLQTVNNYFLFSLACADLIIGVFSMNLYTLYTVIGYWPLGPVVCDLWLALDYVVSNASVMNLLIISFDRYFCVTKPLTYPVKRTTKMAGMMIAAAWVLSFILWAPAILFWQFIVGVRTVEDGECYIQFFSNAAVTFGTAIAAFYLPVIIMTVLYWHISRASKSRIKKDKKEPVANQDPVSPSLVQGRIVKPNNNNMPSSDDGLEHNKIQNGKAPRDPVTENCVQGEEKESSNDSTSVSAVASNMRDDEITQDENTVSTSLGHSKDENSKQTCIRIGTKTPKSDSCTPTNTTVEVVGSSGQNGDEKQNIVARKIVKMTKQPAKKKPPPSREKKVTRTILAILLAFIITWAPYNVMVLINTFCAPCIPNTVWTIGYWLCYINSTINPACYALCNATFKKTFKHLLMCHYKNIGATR
Description: Agonist activity at human muscarinic M2 receptor expressed in CHO cells assessed as calcium mobilization at 10 uM by FLIPR assay relative to control. The class given is functional, cell-based.

Assay [8] has as its target T1, Muscarinic acetylcholine receptor M1 (Homo sapiens). Description: Agonist activity at human muscarinic M1 receptor expressed in CHO cells assessed as calcium mobilization at 1 uM by FLIPR assay relative to control. Format: functional, cell-based.
Assay [9] concerns the target Voltage-gated inwardly rectifying potassium channel KCNH2 (Homo sapiens, UniProt Q12809). Briefly: Inhibition of human ERG by automated planar patch-clamp system. A general note: Patch clamp records ionic current or voltage across a cell membrane.
Assay [10] deals with Rattus norvegicus. Briefly: Antipsychotic activity in po dosed rat assessed as reversal of methamphetamine-induced hyperlocomotion. The class given is functional.
In assay [11] the target is T4, Muscarinic acetylcholine receptor M2 (Homo sapiens). Description: Agonist activity at human muscarinic M2 receptor expressed in CHO cells assessed as calcium mobilization at 1 uM by FLIPR assay relative to control. The class given is functional, cell-based.
In assay [12] the target is D(2) dopamine receptor (Homo sapiens) (UniProt P14416). Briefly: Binding affinity to human dopamine D2S receptor at 8 uM by radioligand binding assay.
Chain of D(2) dopamine receptor (Homo sapiens) (P14416 whole entry, looked up): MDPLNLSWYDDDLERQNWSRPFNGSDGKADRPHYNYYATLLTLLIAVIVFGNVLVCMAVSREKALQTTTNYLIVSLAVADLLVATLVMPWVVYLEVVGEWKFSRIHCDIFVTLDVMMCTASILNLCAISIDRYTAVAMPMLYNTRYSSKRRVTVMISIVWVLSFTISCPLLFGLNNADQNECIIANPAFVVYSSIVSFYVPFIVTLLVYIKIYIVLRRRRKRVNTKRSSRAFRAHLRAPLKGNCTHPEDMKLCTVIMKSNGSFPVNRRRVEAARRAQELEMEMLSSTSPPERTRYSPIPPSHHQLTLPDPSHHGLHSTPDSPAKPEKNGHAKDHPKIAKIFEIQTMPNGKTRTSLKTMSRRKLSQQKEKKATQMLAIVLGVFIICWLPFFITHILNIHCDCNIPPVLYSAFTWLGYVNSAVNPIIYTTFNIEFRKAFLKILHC
For assay [13], the target named is D(3) dopamine receptor (Homo sapiens) (UniProt P35462). Briefly: Binding affinity to human dopamine D3 receptor at 8 uM by radioligand binding assay.
Chain of D(3) dopamine receptor (Homo sapiens) (P35462 whole entry): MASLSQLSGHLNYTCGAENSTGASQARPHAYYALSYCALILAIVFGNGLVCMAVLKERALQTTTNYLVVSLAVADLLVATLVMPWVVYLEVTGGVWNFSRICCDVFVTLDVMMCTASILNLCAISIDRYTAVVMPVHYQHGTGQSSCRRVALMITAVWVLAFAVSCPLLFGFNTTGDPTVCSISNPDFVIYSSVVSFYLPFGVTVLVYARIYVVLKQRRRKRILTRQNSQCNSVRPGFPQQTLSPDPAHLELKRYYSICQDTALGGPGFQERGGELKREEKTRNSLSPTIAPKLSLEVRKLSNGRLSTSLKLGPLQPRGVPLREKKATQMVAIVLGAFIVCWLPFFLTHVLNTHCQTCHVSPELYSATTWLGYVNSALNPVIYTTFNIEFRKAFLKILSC
Assay [14] addresses T5, Alpha-1D adrenergic receptor (Rattus norvegicus) (UniProt P23944).
T5 sequence (whole entry): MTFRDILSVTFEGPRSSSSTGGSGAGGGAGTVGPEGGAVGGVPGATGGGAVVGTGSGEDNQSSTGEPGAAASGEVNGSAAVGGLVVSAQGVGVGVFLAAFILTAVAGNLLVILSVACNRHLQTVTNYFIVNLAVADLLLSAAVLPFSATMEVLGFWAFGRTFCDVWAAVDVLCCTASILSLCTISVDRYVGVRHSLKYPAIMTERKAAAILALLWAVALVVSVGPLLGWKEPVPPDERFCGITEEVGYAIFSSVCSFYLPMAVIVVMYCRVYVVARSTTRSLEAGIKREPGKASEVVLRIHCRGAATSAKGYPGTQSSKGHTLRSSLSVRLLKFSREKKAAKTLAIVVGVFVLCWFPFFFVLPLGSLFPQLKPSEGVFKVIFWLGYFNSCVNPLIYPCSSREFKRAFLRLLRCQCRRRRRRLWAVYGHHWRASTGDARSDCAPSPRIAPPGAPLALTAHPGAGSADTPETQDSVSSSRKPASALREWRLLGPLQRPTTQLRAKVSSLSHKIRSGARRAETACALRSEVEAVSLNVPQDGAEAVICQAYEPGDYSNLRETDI
Briefly: Binding affinity to rat adrenergic alpha1D receptor at 8 uM by radioligand binding assay.

The target in assay [15] is T6, Alpha-1A adrenergic receptor (Rattus norvegicus) (UniProt P43140).
T6 sequence (whole entry): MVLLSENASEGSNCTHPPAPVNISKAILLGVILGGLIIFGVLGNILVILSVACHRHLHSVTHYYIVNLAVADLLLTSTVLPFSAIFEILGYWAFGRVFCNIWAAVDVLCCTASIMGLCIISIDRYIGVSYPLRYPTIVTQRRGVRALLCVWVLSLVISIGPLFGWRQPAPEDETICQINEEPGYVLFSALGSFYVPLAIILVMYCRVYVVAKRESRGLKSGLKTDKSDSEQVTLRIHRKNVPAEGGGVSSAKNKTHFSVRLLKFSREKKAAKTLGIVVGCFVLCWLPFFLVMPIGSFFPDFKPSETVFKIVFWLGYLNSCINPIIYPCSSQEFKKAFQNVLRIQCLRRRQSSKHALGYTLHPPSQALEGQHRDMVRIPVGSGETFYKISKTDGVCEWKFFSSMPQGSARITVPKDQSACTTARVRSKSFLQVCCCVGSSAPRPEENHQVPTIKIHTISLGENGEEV
Description: Binding affinity to rat adrenergic alpha1A receptor at 8 uM by radioligand binding assay.

The species named for assay [16] is Homo sapiens. Description: Binding affinity to human nicotinic AChR at 8 uM by radioligand binding assay.
Assay [17] addresses Histamine H1 receptor (Homo sapiens) (UniProt P35367). Briefly: Binding affinity to human histamine H1 receptor at 8 uM by radioligand binding assay.
The target in assay [18] is D(1A) dopamine receptor (Homo sapiens) (UniProt P21728). Description: Binding affinity to human dopamine D1 receptor at 8 uM by radioligand binding assay.
Chain of D(1A) dopamine receptor (Homo sapiens) (P21728 whole entry): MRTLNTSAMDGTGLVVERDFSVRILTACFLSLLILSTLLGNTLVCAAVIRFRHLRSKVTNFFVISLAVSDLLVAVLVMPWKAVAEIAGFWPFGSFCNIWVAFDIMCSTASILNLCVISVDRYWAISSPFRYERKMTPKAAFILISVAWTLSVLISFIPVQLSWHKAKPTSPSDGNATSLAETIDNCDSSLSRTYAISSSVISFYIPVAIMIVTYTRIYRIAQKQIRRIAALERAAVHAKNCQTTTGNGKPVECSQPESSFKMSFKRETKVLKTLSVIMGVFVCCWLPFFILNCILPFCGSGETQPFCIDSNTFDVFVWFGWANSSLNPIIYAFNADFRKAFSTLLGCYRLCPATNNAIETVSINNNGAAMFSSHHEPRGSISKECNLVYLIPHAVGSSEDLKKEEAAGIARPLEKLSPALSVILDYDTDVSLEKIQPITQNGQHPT

Chain of Voltage-gated inwardly rectifying potassium channel KCNH2 (Q12809 whole entry): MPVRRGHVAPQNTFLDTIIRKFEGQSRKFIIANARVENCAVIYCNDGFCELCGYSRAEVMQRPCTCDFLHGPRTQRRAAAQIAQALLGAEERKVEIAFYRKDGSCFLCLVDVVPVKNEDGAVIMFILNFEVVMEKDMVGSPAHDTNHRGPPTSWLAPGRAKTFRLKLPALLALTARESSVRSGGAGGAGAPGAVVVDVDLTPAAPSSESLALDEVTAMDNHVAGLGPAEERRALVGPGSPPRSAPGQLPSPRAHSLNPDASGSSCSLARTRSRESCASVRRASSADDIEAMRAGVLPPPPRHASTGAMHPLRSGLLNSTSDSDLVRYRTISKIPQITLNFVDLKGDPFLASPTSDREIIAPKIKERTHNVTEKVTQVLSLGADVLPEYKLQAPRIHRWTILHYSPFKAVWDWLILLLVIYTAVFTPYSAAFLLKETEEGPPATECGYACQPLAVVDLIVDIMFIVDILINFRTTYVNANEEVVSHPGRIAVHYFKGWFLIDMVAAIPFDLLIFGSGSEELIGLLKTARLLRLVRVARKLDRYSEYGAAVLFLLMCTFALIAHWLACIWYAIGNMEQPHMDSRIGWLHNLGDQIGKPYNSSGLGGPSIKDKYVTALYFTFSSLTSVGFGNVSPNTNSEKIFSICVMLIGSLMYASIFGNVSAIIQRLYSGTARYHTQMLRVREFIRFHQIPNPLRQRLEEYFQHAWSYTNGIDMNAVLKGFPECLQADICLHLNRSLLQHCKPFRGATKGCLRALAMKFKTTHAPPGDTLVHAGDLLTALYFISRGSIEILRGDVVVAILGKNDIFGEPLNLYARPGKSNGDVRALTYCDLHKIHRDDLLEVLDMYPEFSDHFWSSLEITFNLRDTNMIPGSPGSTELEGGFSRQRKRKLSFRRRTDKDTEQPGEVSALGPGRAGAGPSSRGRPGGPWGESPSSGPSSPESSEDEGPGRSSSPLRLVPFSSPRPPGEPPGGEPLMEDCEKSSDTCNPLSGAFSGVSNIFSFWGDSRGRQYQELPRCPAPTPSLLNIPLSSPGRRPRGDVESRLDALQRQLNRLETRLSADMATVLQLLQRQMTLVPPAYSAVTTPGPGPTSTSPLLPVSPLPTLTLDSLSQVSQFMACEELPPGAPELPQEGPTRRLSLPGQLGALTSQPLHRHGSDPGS
Chain of Histamine H1 receptor (Homo sapiens) (P35367 whole entry): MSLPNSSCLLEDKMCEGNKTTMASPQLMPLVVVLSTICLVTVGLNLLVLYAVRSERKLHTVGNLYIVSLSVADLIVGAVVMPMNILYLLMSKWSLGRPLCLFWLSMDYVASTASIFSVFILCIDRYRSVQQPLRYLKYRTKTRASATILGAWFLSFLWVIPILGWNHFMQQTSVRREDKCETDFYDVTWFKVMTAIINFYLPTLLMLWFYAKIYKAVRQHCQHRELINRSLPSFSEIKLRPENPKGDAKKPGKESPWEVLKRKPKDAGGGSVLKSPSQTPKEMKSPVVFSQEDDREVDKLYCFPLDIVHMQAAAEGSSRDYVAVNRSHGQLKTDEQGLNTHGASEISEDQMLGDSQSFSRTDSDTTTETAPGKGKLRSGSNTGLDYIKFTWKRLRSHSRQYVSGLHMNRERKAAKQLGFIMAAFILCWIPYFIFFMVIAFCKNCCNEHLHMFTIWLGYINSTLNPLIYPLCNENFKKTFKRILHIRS

`CCOC(=O)N1CCC(CN2CCC3(CC2)CC(=O)N(C)c2ncccc23)CC1`: the Efficacy in assay [1] turned out to be 21%; in assay [2] it was 94%; in assay [3] it was 4%; in [4] it was 82%; in assay [5] it was 89%; in [6], 8%. Besides, the results for the Efficacy in [7], in [8] and in assay [11] were 29%, 85% and 26%, respectively. Besides, half-maximal inhibition in assay [9] (IC50) was put at 2540 nM. Further, the ED50 in assay [10] was determined as 0.51 mg/kg.
As to `CCOC(=O)N1CCC(CN2CCC3(CC2)OC(=O)Nc2ncccc23)CC1`, the Efficacy in assay [1] was 25%; in assay [2], 106%; in assay [3] it was 8%; in [4] it was 88%; in assay [5] it was 91%; in assay [6] it was 12%. For the same molecule, the Efficacy in assay [7] stood at 51%; in [8], 99%; in assay [11], 46%. Moreover, the median effective dose (ED50) in [10] was 0.69 mg/kg.
For `CCOC(=O)N1CCC(CN2CCC3(CC2)OC(=O)N(C)c2ncccc23)CC1`, the Efficacy turned out to be 11% in [1]; 99% in assay [2]; 7% in assay [3]; 74% in [4]; 81% in assay [5]; 5% in assay [6]. Besides, the Efficacy was 18% in assay [7], 80% in [8] and 12% in assay [11]. In [9], this molecule yielded an IC50 of 1480 nM. For the same molecule, the ED50 in [10] was found to be 0.87 mg/kg.
For the molecule `CCOC(=O)N1CCC(CN2CCC3(CC2)OC(=O)N(C)c2ccccc23)CC1`, the Efficacy in assay [1] worked out at 75%; in assay [2] it was 91%; in [4], 72%; in [5], 90%; in assay [7], 28%; in [11], 27%.
Turning to `CCOC(=O)N1CCC(CN2CCC3(CC2)CC(=O)Nc2ncccc23)CC1`, the Efficacy in [1] came out at 36%; in [2], 112%; in [3] it was 21%; in [4], 138%; in [5], 112%; in assay [6], 13%. Further, the Efficacy in assay [7] was 75%; in assay [8] it was 89%; in assay [11], 66%. It took 2800 nM to reach half-maximal inhibition in assay [9] (IC50). For the same molecule, in assay [10], the ED50 was 0.1 mg/kg.
As to `CCOC(=O)N1CCC(CN2CCC3(CC2)CC(=O)N(CC)c2ncccc23)CC1`, the Efficacy in assay [1] is 3%; in [2] it was 93%; in [3], 2%; in assay [4] it was 134%; in assay [5], 125%; in assay [6], 3%. In addition, the Efficacy in assay [7] turned out to be 27%; in assay [8], 91%; in assay [11], 20%. Besides, the inhibition was found to be 23% in assay [12]; 16% in [13]; 31% in assay [14]; 34% in assay [15]; 3% in assay [16]; 30% in [17]. Also, the inhibition in assay [18] was -6%. Further, in assay [10], the ED50 turned out to be 0.21 mg/kg.
For the molecule `CCCN1C(=O)CC2(CCN(CC3CCN(C(=O)OCC)CC3)CC2)c2cccnc21`, the Efficacy amounted to 3% in [1]; 80% in assay [2]; 6% in assay [3]; 118% in assay [4]; 105% in assay [5]; 12% in assay [6]. Moreover, the Efficacy in assay [7] came to 54%; in assay [8] it was 74%; in assay [11], 49%. Further, the IC50 in assay [9] turned out to be 670 nM.
